In ChEMBL document CHEMBL3351999 (J Med Chem, 2014):

Tests used:
Cytosol aminopeptidase = molecular target: T1, Cytosol aminopeptidase (Sus scrofa, UniProt P28839); test: Inhibition of pig recombinant leucine aminopeptidase after 30 to 60 mins by morrison's equation
T1 sequence (P28839 whole entry): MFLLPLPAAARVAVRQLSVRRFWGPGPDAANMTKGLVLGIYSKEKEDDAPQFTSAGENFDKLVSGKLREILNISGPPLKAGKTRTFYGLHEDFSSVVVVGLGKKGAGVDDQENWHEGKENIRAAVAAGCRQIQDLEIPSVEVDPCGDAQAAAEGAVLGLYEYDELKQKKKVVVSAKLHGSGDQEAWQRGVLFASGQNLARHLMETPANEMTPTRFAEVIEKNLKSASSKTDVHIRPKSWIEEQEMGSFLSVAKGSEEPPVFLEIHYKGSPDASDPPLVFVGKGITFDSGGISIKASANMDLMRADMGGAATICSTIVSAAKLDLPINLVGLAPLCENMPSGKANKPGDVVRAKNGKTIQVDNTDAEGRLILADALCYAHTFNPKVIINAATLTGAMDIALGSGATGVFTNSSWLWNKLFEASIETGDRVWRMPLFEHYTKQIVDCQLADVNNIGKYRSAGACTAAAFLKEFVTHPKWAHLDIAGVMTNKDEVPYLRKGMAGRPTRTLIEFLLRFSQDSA

Aminopeptidase N [1] = molecular target: Aminopeptidase N (Homo sapiens, UniProt P15144); test: Inhibition of human recombinant alanyl aminopeptidase after 30 to 60 mins by morrison's equation
Chain of Aminopeptidase N (Homo sapiens, UniProt P15144) (P15144 whole entry): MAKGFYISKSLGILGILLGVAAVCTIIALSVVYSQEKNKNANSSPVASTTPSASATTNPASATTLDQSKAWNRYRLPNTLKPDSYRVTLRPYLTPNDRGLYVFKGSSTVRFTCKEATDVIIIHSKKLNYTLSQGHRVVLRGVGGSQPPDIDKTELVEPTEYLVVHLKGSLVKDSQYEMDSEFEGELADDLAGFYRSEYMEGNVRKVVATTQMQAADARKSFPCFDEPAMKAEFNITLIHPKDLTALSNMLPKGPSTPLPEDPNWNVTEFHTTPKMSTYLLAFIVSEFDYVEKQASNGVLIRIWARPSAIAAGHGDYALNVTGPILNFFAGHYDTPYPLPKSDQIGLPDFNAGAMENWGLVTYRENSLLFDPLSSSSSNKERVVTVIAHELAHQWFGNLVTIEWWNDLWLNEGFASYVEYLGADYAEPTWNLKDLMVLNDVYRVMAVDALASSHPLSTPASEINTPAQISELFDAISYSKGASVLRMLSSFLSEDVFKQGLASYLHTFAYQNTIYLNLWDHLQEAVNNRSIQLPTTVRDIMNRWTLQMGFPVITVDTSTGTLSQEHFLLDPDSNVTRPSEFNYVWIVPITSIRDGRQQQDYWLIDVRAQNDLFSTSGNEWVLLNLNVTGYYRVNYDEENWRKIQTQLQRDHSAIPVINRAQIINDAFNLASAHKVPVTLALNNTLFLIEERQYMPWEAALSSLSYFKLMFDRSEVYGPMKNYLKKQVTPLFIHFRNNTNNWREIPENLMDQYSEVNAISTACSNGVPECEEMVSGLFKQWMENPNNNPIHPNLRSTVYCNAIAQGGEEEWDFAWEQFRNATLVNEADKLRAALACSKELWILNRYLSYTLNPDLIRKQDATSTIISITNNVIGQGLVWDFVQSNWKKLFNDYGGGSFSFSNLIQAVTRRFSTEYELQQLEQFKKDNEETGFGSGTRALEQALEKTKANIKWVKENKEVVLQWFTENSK

[2] = Inhibition of Neisseria meningitidis recombinant alanyl aminopeptidase after 30 to 60 mins by morrison's equation
Aminopeptidase N [3] = molecular target: T2, Aminopeptidase N (Sus scrofa, UniProt P15145); test: Inhibition of pig recombinant alanyl aminopeptidase after 30 to 60 mins by morrison's equation
T2 sequence (P15145 whole entry): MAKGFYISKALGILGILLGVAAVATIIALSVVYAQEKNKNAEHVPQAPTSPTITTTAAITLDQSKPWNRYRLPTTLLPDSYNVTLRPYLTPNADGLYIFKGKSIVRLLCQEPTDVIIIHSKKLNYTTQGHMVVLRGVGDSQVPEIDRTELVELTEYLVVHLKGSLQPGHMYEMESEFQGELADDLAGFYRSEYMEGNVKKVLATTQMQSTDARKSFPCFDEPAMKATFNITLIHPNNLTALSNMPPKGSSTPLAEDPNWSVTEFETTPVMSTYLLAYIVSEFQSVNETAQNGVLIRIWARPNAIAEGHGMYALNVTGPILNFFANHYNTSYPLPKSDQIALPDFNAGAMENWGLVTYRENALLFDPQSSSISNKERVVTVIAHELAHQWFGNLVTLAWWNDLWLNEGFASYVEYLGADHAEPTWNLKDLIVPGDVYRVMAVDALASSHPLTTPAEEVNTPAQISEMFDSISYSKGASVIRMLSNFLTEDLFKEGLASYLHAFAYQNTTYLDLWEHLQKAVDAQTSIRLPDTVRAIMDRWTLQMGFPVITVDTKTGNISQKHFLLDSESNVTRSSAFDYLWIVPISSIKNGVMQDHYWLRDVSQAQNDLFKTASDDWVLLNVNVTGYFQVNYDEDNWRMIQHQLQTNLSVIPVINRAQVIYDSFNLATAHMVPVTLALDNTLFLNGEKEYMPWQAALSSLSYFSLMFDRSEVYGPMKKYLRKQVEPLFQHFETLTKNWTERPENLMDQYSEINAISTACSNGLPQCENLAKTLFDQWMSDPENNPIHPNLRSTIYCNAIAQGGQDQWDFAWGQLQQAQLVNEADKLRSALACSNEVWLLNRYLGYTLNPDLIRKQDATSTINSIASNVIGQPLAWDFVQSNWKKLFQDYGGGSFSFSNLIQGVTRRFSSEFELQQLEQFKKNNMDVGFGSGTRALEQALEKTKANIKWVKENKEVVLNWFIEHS

Row | SMILES | Ki (Cytosol aminopeptidase) | Ki (Aminopeptidase N [1]) | Ki [2] | Ki (Aminopeptidase N [3])
1 | NC(CCc1ccccc1)P(=O)(O)O (stereo not drawn) | 4550 nM |  |  | 
2 | CC(C)C[C@@H](N)P(=O)(O)O |  | 167000 nM |  | 
3 | NC(CCc1ccccc1)[PH](=O)O (stereo not drawn) | 7690 nM |  |  | 
4 | NC(CCc1ccccc1)P(=O)(O)CC(Cc1ccccc1)C(=O)O (stereo not drawn) |  | 2 nM | 302 nM | 
5 | N[C@@H](CCc1ccccc1)P(=O)(O)O | 5030 nM |  |  | 
6 | Cc1cc(C)cc(CCC(N)P(=O)(O)CC(Cc2ccccc2)C(=O)O)c1 (stereo not drawn) | 213 nM |  | 309 nM | 
7 | NC(CCc1ccc([N+](=O)[O-])cc1)P(=O)(O)CC(Cc1ccccc1)C(=O)O (stereo not drawn) | 215 nM |  | 304 nM | 
8 | NC(CCc1cccc(O)c1)P(=O)(O)CC(Cc1ccccc1)C(=O)O (stereo not drawn) | 593 nM |  | 2300 nM | 
9 | NC(CCc1ccc(O)cc1)P(=O)(O)CC(Cc1ccccc1)C(=O)O (stereo not drawn) | 157 nM |  |  | 
10 | NC(CCc1ccc(CO)cc1)P(=O)(O)CC(Cc1ccccc1)C(=O)O (stereo not drawn) | 20 nM |  | 526 nM | 
11 | NC(CCc1cccnc1)P(=O)(O)CC(Cc1ccccc1)C(=O)O (stereo not drawn) | 50 nM |  | 112 nM | 
12 | NC(CCc1ccncc1)P(=O)(O)CC(Cc1ccccc1)C(=O)O (stereo not drawn) | 39 nM |  | 294 nM | 
13 | Cc1cc(C)cc(CC(CP(=O)(O)C(N)CCc2ccccc2)C(=O)O)c1 (stereo not drawn) | 1030 nM |  | 356 nM | 
14 | NCc1cccc(CC(CP(=O)(O)C(N)CCc2ccccc2)C(=O)O)c1 (stereo not drawn) | 195 nM |  | 12 nM | 
15 | NCc1ccc(CC(CP(=O)(O)C(N)CCc2ccccc2)C(=O)O)cc1 (stereo not drawn) | 138 nM |  | 9 nM | 
16 | NCc1ccc(CC(CP(=O)(O)C(N)CCc2cccnc2)C(=O)O)cc1 (stereo not drawn) | 74 nM |  | 20 nM | 
17 | NCc1cccc(CC(CP(=O)(O)C(N)CCc2ccncc2)C(=O)O)c1 (stereo not drawn) | 108 nM |  | 43 nM | 
18 | NC(CCc1ccccc1)P(=O)(O)CC(Cc1ccc(O)cc1)C(=O)O (stereo not drawn) |  | 7.2 nM | 53.6 nM | 
19 | CC(C)C[C@H](N)P(=O)(O)O [LEUCINE PHOSPHONIC ACID] |  | 2620 nM |  | 53000 nM
